Key:
SW620 cells = assay: Effect on growth of SW620 cells (cell counting, trypan blue); format: cell-based, Human; details: for IC50: SW620 colorectal carcinoma cells, 48 h treatment, 0.2% FBS, cumulative concentration response curve
Description: Human SW620 colorectal carcinoma cells were obtained from the American Type Culture Collection (ATCC) and maintained in Leitbovitz's L-15 medium containing 10% FBS, 10 mM HEPES, 2.2 g/L Na2C03 and 10 units/ml penicillin, 100 μg/ml streptomycin. Cells were grown in a 5% CO2 incubator at 37° C. A predefined number of SW620 cells were allowed to grow in 24 wells plates (1×10^4 cells/well) for 3 days until cells reached 80% confluence. Then, cells were starved in Leitbovitz's medium without FBS for 8 h. Then, the culture medium was replaced with Leitbovitz+0.2% FBS and different concentrations of MAG-DHA, MAG-EPA or MAG-DPA (0.1, 0.3, 1, 3, 10, 30 and 100 μM) were added to each well. Culture media were changed every 24 h and cells were treated for 48 h. After 48, the medium was removed from the culture plates and 0.05% trypsing EDTA was used to detach the cells from the surface of the culture plates. The harvested cells were counted, both the viable and dead ones, using a Countess Automated Cell Counter (Invitrogen Inc.). Briefly, for each condition an appropriated cell dilution was prepared from the harvested cells and an aliquot was mixed with an equal volume of 0.4% trypan blue, and 10 μl was transferred into each side of a Countess™ chamber slide. All concentrations tested were performed in triplicata and were representative of 5 independent experiment.
FIG. 2 represents an in vitro cumulative concentration response curves (CCRC) of MAG-DHA, MAG-EPA and MAG-DPA ([…]) on SW620 cell growth.

[1] = tested on: A549 human cancer cell line; assay: In vivo tumor xenograft experiment: tumor tissue fatty acid composition after oral MAG-DHA; details: A549 xenografts in female CD-1 nude mice; per os 618 mg/kg daily for 48 days; tumors harvested 24 hours after treatment completion; HPLC-MS
Description: Female CD-1 nude mice were obtained from Charles River Laboratories (Montreal, Qc, Canada). All studies involving mice were approved by the institutional animal care committee (Protocol: #237-10). Human A549 xenografts were established in 4-week-old female CD-1 nude mice. Mice were inoculated with 0.2 ml of a solution of 1×10^6 A549 cells subcutaneously on the right flank. Mice were randomly assigned into 3 groups, control (untreated), corn oil and MAG-DHA (CA2672513, CA2677670) treated (n=6 per group). Corn oil and MAG-DHA were administrated per os (618 mg/kg) daily following cell inoculation. Treatments were continued for 48 days. Mice were sacrificed when tumor volume reached ≈1.5 cm3 in the control group. Tumor tissues were harvested 24 hours after treatment completion. Tumor tissue fatty acids compositions were measured using a high-performance liquid chromatography (HPLC)-MS method [Gagne S and al. J Lipid Res 2007 January; 48(1):252-9] modified to detect complete fatty acid composition. Data were acquired in SIM mode corresponding to the following fatty acids: C20:4 (AA), C20:5 (EPA), C22:5 (DPA), C22:6 (DHA). The linear calibration curves were obtained in the concentration range of 2 to 500 μg/ml
FIG. 1 represents the fatty acids compositions of tumors after MAG-DHA oral supplementation.

| Compound | times more active than MAG-EPA or MAG-DHA (SW620 cells; SW620 cell growth, comparison of IC50 values) [times] | IC50 (SW620 cells) [nM] | fatty acids compositions of tumors (EPA, DHA, DPA) compared to control and corn oil groups [1] | IC50 (SW620 cells; Homo sapiens, SW-620, 48 h) [nM] |
| --- | --- | --- | --- | --- |
| CC/C=C\C/C=C\C/C=C\C/C=C\C/C=C\CCCCCC(=O)OCC(O)CO (stereo not drawn) [MAG-DPA, sn1(3)-all-cis-7,10,13,16,19-docosapentaenoylglyceride] | 10 | 370 | – | – |
| CC/C=C\C/C=C\C/C=C\C/C=C\C/C=C\CCCCCC(=O)OCC(O)CO (stereo not drawn) [MAG-DHA, sn1(3)-all-cis-4,7,10,13,16,19-docosahexaenoylglyceride] | – | 2900 | significant increase in EPA, DHA and DPA | – |
| CC/C=C\C/C=C\C/C=C\C/C=C\C/C=C\CCCC(=O)OCC(O)CO (stereo not drawn) [MAG-EPA, sn1(3)-all-cis-5,8,11,14,17-eicosapentaenoylglyceride] | – | – | – | 3200 |

Reference: patent US9447020B2, “Polyunsaturated fatty acid monoglycerides, derivatives, and uses thereof” (SCF PHARMA INC., priority 2013, dated 2016)
